Reference: patent US11202833B2, “Methylglyoxal-scavenging cyclic peptides and their use for the prevention and treatment of diseases associated with elevated methylglyoxal levels” (RUPRECHT-KARLS-UNIVERSITÄT HEIDELBERG, priority 2016, dated 2021)
Each block holds one molecule with its values, some of them ahead of it. Numbered stars: 1 amine (or outer) side, 2 acyl side, 3 side chain; on linkers, the order of the positions; unused ones are H or OH. Bridge positions count the residues as written; N and C are the ends. Side chains are listed from the residue outwards. Peptide text beside a SMILES is read from it. * marks the point of attachment. ξ: configuration not given here. DOTA = O=C(O)CN1CCN(CC(=O)O)CCN(CC(=O)*)CCN(CC(=O)O)CC1; C16 diacid = O=C(O)CCCCCCCCCCCCCCC(=O)*; ξγGlu = O=C(O)C(CCC(=O)[*:2])N[*:1]; Myristoyl = CCCCCCCCCCCCCC(=O)*

Key:
[1] = parameters: species or system NMRI mice; conditions: mouse, in vivo
Experimental: DOTA coupled peptides were labeled with ^68Ga as described previously (Wischnjow et al., 2016). In short ^68Ga was eluted from the generator into a tube containing 20 nmol of the peptide and 0.5% ascorbic acid in 0.5 M Na-acetate buffer. The mixture was incubated at pH 3.5-4.0 for 10′ at 95° C. while stirring to allow for the ^68Ga-DOTA complex to form. Free ^68Ga was removed using C18 solid phase extraction cartridges (Thermo Scientific, USA) and the product was checked by HPLC (Agilent Technologies, USA) equipped with a radio flow detector. The labeled peptide was injected i.v. into NMRI mice. PET analysis was carried out for 0-1 h and for another 20′ after 2 h while cumulative pictures are shown for 0-20 min, 40-60 min and 120-140 min.
Data was normalized for animal weight and injected dose and pictures and data are given as standardized uptake value [SUV]. For quantitative comparison the area under the curve for the SUV values of the different regions was determined and compared by Student's t-test.

[2] = system: human serum albumin (HSA); assay: Competitive inhibition of HSA MG-H1 formation; format: biochemical; conditions: for prevention of HSA-MG-H1 formation: FIG. 2B, HSA with MG and scavenger
Experimental: In short, pure MG-1,1-dimethylacetal was heated in sulphuric acid solution for 1 h and fractionally distilled in a column containing glass helices under reduced pressure. Fractions were analyzed by ^1H and ^13C NMR. […] Two parts urea (8M urea, 0.5 M TrisHCl; pH8.0) were added to the solution and the sample was vortexed. HSA was precipitated by addition of two parts acetonitrile (respective to the final sample/urea mixture) and collected by centrifugation for 10′ at 13000 g. […] The HSA containing pellet was dissolved in 20 mM HCl and the protein content was determined by BCA assay. […] The amount of HSA-MG-H1 adduct was determined by LC-MS. Samples and standard curve were spiked with d3-MG-H1 (Polypeptide Group, San Diego, Calif., USA) and derivatized with Fmoc-Cl. Separation was performed on a C18 column (Hypersil Gold aQ; Thermo Scientific, USA) using a 20 min gradient of 0-100% acetonitrile (0.1% TFA) with the first five minutes diverted to waste. Analysis was carried out on an Exactive Orbitrap MS system (Thermo Scientific, USA). […] The calibration range used for the assay was 0-30 pmol.

[3] = MG scavenging in vitro (MG half-life by HPLC)
Experimental: (§1) Scavengers (400 μM) were incubated with MG (200 μM) in 0.1 M phosphate buffer, pH 7.4 at 37° C. The kinetics of the scavenging reaction was followed for 48 h. Samples were frozen in liquid nitrogen and stored at −80° C. until analysis. MG content was quantified by HPLC as described below.
(§2) In short samples were precipitated with 20% TCA at a ratio of 2/1 and vortex mixed. Internal standards ^13C MG (LC-MS/MS analysis) or 2,3-dimethylquinoxaline (HPLC analysis) and water was added and the sample mixed again. Samples were centrifuged at 13,000 g at 4° C. for 5 min and the supernatant derivatized with 1,2-diaminobenzene in the presence of sodium azide for 4 h at RT. For HPLC based MG analysis the linear gradient was 0-6% acetonitrile in 15 min. The MG-1,2-diaminobenzene adduct 2-methylquinoxaline and the internal standard 2,3-dimethylquinoxaline were detected with a UV monitor at 320 nm and eluted at 12.7 min and 14.2 min, respectively. For LC-MS/MS, samples were analyzed using an ACQUITY UPLC I equipped with a Xevo TQ-S mass spectrometer (Waters, USA). Samples were separated on BEH C18 analytical column (2.1×50 mm, 1.7 μm) fitted with pre-column (2.1×5 mm, 1.7 μm). Solvent A was water+0.1% formic and solvent B was 50% acetonitrile+0.1% formic acid and a linear gradient from 0-100% solvent B, over ten minutes was used with a flow rate of 0.2 ml/min. Injection volume was 1 μl and the column temperature was 20° C. The quinoxaline analytes were detected by electrospray positive ionization-mass spectrometric multiple-reaction monitoring (MRM). The source temperature was 150° C. and the desolvation gas temperature was 350° C. The cone gas and desolvation gas flow rates were 150 and 800 l/hr, respectively. The capillary voltage was 0.5 kV and the cone voltage was 20V. Mass transitions (parent ion >fragment ion; collision energy) and retention time were as follows: MG 145.01>77.10; 24 eV, 5.93 mins; [^13C3]-MG 148.07>77.16; 24 eV, 5.92 mins. The standard curve was in the range of 0-20 pmol and 0-1 nmol for LC MS/MS analysis and HPLC analysis, respectively.

[4] = Serum stability of 177Lu-labelled peptides; format: in vitro ADME; conditions: human serum, 37° C., after 24 h, 177Lu label
Experimental: The cyclic peptide CycK(DOTA)K(Myr)R4E and the linear peptide K(DOTA)K(Myr)R4E were labeled with ^177Lu. In short 20 nmol of peptides were incubated with ^177Lu in 0.4 M Na-acetate buffer (pH 5.0) for 10′ at 95° C. Free ^177Lu was removed by C18 solid phase extraction cartridges, the products eluted with EtOH and checked by radio-HPLC. The radiolabelled peptides were reconstituted in human serum (H4522; Sigma-Aldrich) and incubated in serum at 37° C. for the times indicated. Serum was precipitated by addition of two parts acetonitrile centrifuged for 10 min at 13000 g and the supernatant analysed by HPLC (Agilent Technologies, USA) fitted with a radio flow detector using a 10 min gradient of 0-60% acetonitrile in water (0.1% TFA).

washed human whole blood [5] = assay: Hemolysis; conditions: 37° C., 30 min
Experimental: (§3) Human whole blood was collected into EDTA tubes and centrifuged at 500 g at RT for 5 min. The plasma and buffy coat was removed and saline solution was added to the haematocrit containing pellet to the previous plasma level to wash the erythrocytes. The tube was gently inverted several times and centrifuged again at 500 g. This procedure was repeated until the supernatant remained clear (approx. 4 times). After the last centrifugation step the hematocrit was re-suspended in PBS to reach the original blood volume. […] Haemolysis was compared to saline solution (negative control; 0% haemolysis) and 1% Triton X100 solution (positive control; 100% haemolysis).

in vivo = conditions: C57/B16, mouse, ip
Experimental: Blood was collected by cardiac puncture in an aesthetised mice at time points 10′, 30′, 1 h, 4 h, 8 h and 24 h into tubes containing EDTA. Plasma was collected after centrifugation at 3000 g for 5′ at room temperature and frozen in liquid nitrogen.
Plasma was acidified with 5% TFA (5 μl/30 μl), acetonitrile (60 μl) was added and the tubes vortexed. Another 120 μl of acetonitrile were added and samples were ultrasonicated for 5 min. Samples were spun for 20 min at 13000 g. The supernatant (180 μl) was collected, mixed with 180 μl of water and freeze dried. The sample was resuspended in 30 μl of a mixture of acetonitrile/water (ratio of 1/1) containing 0.1% TFA. The samples was analysed by LC MS. Concentration was calculated by normalisation for the internal standard in combination with linear regression of a standard curve. Concentration/time-points were fitted using a one phase exponential decay model to determine the half-life of the drug.

[6] = system: murine cardiac endothelial cells; format: cell-based; conditions: mouse, 48 h, 1 mM
Experimental: Murine cardiac endothelial cells were seeded on gelatine pre-coated 96 well plates at a density of 5000 cells per well in DMEM (1 g/1 glucose, 5% FCS, 1% Pen/Strep, 1% AmpB, 1% HEPES). On the following day cells were switched to medium containing only 0.1% FCS. […] MTT ((3-(4,5-Dimethylthiazol-2-yl)-2,5-Diphenyltetrazolium Bromide)) solution (50 μl of 2 mg/ml in PBS) was added to the wells and the plate was incubated at 37° C. for 3-4 h. Medium was removed and 200 μl of DMSO was added to lyse cells and solubilise the purple formazan crystals. The plate was incubated for 1 h at room temperature on a shaker and absorbance was measured at 590 nm. Intensity for untreated cells was set to 100%.

washed human whole blood [7] = system: washed human whole blood
Experimental: as §3

[8] = 400 µM, pH 7.4
Experimental: as §1, §2

[9] = Kinsky et al., 2016; cited from earlier work

completely excreted after [1]: ≤ 140 min | excreted almost completely within/after ([1]; iv): ≤ 20 min
Compound: N=C(N)NCCC[C@@H]1NC(=O)[C@H](CCCNC(=N)N)NC(=O)[C@H](CCCNC(=N)N)NC(=O)[C@H](CCCNC(=N)N)NC(=O)[C@H](CCCCNC(=O)CN2CCN(CC(=O)O)CCN(CC(=O)O)CCN(CC(=O)O)CC2)NC(=O)CC[C@@H](C(=O)O)NC1=O (68Ga complex, metal not drawn) [CycK(DOTA)R4E] (K(DOTA)RRRRE-OH; lactam N-6)

Compound: N=C(N)NN [Agd, aminoguanidine]
prevention of HSA-MG-H1 formation [2]: tended to be more efficient

Compound: NCCC(=O)N[C@@H](Cc1cnc[nH]1)C(=O)O [Car, carnosine]
prevention of HSA-MG-H1 formation [2]: nor did it prevent | MG scavenging (in words) [3]: neither scavenged MG

Compound: CN(CC(=O)O)C(=N)N [Cre, creatine]
MG scavenging (in words) [3]: fastest of the endogenous MG scavengers tested

peptide remaining [4]: 86.16% | SUV in the bladder [1]: lower | SUV in the kidney [1]: similar | SUV values in the heart, muscle and liver [1]: higher | accumulation in the kidneys [1]: strong accumulation in the kidneys | circulates for [1]: over 140 min
Compound: CCCCCCCCCCCCCC(=O)NCCCC[C@@H]1NC(=O)[C@H](CCCCNC(=O)CN2CCN(CC(=O)O)CCN(CC(=O)O)CCN(CC(=O)O)CC2)NC(=O)CC[C@@H](C(=O)O)NC(=O)[C@H](CCCNC(=N)N)NC(=O)[C@H](CCCNC(=N)N)NC(=O)[C@H](CCCNC(=N)N)NC(=O)[C@H](CCCNC(=N)N)NC1=O [CycK(DOTA)K(Myr)R4E] (K(DOTA)K(Myristoyl)RRRRE-OH; lactam N-7)

Compound: CCCCCCCCCCCCCC(=O)NCCCC[C@@H]1NC(=O)CC[C@@H](C(=O)O)NC(=O)[C@H](CCCNC(=N)N)NC(=O)[C@H](CCCNC(=N)N)NC(=O)[C@H](CCCNC(=N)N)NC(=O)[C@H](CCCNC(=N)N)NC1=O [CycK(Myr)R4E] (K(Myristoyl)RRRRE-OH; lactam N-6)
concentration above which significant hemolysis is displayed (washed human whole blood [5]): over 50 μM

half-life (in vivo): ~8 h | MG t1/2 [8]: 1.1 h
Compound: N=C(N)NCCC[C@@H]1NC(=O)[C@H](CCCNC(=N)N)NC(=O)[C@H](CCCNC(=N)N)NC(=O)[C@H](CCCNC(=N)N)NC(=O)[C@H](CCCCNC(=O)CCC(NC(=O)CCCCCCCCCCCCCCC(=O)O)C(=O)O)NC(=O)CC[C@@H](C(=O)O)NC1=O (stereo partly shown) [CycK(e-Hdd)R4E] (K([ξγGlu-C16 diacid])RRRRE-OH; lactam N-6)
prevention of modification of HSA with MG-H1 ([2]; FIG. 9, peptides 400 μM, HSA 400 μM, MG 200 μM): significantly prevented | viability relative to untreated cells [6]: 75% | hemolysis (in words) (washed human whole blood [7]): does not cause hemolysis even at high concentrations

peptide remaining [4]: 33.4%
Compound: CCCCCCCCCCCCCC(=O)NCCCC[C@H](NC(=O)[C@@H](N)CCCCNC(=O)CN1CCN(CC(=O)O)CCN(CC(=O)O)CCN(CC(=O)O)CC1)C(=O)N[C@@H](CCCNC(=N)N)C(=O)N[C@@H](CCCNC(=N)N)C(=O)N[C@@H](CCCNC(=N)N)C(=O)N[C@@H](CCCNC(=N)N)C(=O)N[C@@H](CCC(=O)O)C(=O)O [K(DOTA)K(Myr)R4E] (H-K(DOTA)K(Myristoyl)RRRRE-OH; N-terminus assumed)

Compound: CN(C)C(=N)N=C(N)N [Met, metformin]
prevention of HSA-MG-H1 formation [2]: did not significantly prevent | MG-metformin adduct concentration in the urine [9]: up to 4 μM

Compound: Cc1ncc(CO)c(CN)c1O [Pyr, pyridoxamine]
prevention of HSA-MG-H1 formation [2]: did not significantly prevent
